What follows are compounds tested against Sigma non-opioid intracellular receptor 1 (Cavia porcellus, UniProt Q60492) (assay: Displacement of [3H]-(+)-pentazocine from sigma-1 receptor in guinea pig brain homogenates).
Assay type: tissue-based

Sequence of Sigma non-opioid intracellular receptor 1 (Q60492 whole entry): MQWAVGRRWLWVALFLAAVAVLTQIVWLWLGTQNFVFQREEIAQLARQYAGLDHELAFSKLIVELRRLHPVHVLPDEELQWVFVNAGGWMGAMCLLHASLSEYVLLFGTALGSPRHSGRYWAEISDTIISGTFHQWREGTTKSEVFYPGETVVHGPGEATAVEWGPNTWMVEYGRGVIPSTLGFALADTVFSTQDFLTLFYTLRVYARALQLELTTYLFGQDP

SMILES	Ki [nM]
CC[C@@]1(c2ccccc2)OCC[C@@H](CCNCc2ccccc2)O1	20
C[C@]1(c2ccccc2)OCC[C@H](CCNCc2ccccc2)O1	11
CC(C)(C)[C@@]1(c2ccccc2)OCC[C@@H](CCNCc2ccccc2)O1	128
c1ccc(CNCC[C@H]2CCO[C@@H](c3ccccc3)O2)cc1	50
NCC[C@H]1CCO[C@@H](c2ccccc2)O1	> 10000
CC[C@]1(c2ccccc2)OCC[C@H](CCNCc2ccccc2)O1	28
C[C@@]1(c2ccccc2)OCC[C@@H](CCNCc2ccccc2)O1	17
CC(C)(C)[C@]1(c2ccccc2)OCC[C@H](CCN)O1	> 10000
CC(C)(C)[C@]1(c2ccccc2)OCC[C@H](CCNCc2ccccc2)O1	253
CCC[C@@]1(c2ccccc2)OCC[C@@H](CCN)O1	> 10000
CCC[C@]1(c2ccccc2)OCC[C@H](CCN)O1	> 10000
CCC[C@]1(c2ccccc2)OCC[C@H](CCNCc2ccccc2)O1	136
CCC1(c2ccccc2)OCCC(CCN)O1 (racemic)	> 10000
C[C@]1(c2ccccc2)OCC[C@H](CCN)O1	> 10000
CC[C@@]1(c2ccccc2)OCC[C@@H](CCN)O1	> 10000
NCC[C@@H]1CCO[C@H](c2ccccc2)O1	> 10000
NCCC1CCOC(c2ccccc2)O1 (racemic)	> 10000
c1ccc(CNCC[C@@H]2CCO[C@H](c3ccccc3)O2)cc1	6
CCC[C@@]1(c2ccccc2)OCC[C@@H](CCNCc2ccccc2)O1	72
CC(C)(C)[C@@]1(c2ccccc2)OCC[C@@H](CCN)O1	> 10000
C[C@@]1(c2ccccc2)OCC[C@@H](CCN)O1	> 10000
CC[C@]1(c2ccccc2)OCC[C@H](CCN)O1	> 10000
